From patent US11939377B2, “Affinity matured CD22-specific monoclonal antibody and uses thereof” (The U.S.A., as represented by the Secretary, Department of …, priority 2018, dated 2024)

Key:
[1] = system: CD22 expression on ALL and DLBCL cell lines (Nalm6, Kopn8, SEM, Pfeiffer, Toledo, PDX); settings: Biberacher et al. 2012; cited from earlier work
[2] = system: ALL and DLBCL tumor cells (Nalm6 site density lines and others); assay: In vitro cytokine / granzyme B production assay (ELISA), CAR T cells co-cultured with tumor cells; type: cell-based, human
Procedure: For cytokine production assays, CAR or mock T cells were washed to remove IL-2 and re-suspended in RPMI medium. 1×10^5 effector cells were then co-cultured with tumor cells in RPMI at a 1:1 effector to target ratio in 96-well plates and incubated at 37° C. for 20 hours. The plates were spun at 1200 RPM for 6 minutes to pellet the cells, and cytokine concentrations in the culture supernatants were measured using IL-2 ELISA (R&D systems), IFNγ ELISA (R&D systems), or granzyme B ELISA (Thermo Fisher Scientific) kits according to the manufacturer's directions.

[3] = system: CD22^neg, CD22^lo or Nalm6 cells; assay: In vitro leukemia clearance assay (IncuCyte, loss of GFP-positive cells); type: cell-based, human; settings: effector-to-target 1:1
Procedure: Cell death was monitored by loss of GFP-positive cells using Incucyte analysis. (FIG. 2B) NSG mice were injected with 1×10^6 GPF-positive CD22neg, CD22lo, or Nalm6 tumor cells on Day 0. […] Mice were imaged using IVIS technology after luciferin-D IP injection. […] Cells were stained for flow cytometry and analyzed on a Fortessa flow machine. (FIG. 2E) Site density cell lines were co-incubated with CD22 CART for 24 hours, and PD1 expression was stained for flow cytometry and analyzed on Fortessa flow machine. MFI=mean fluorescence intensity. […] (FIG. 2G) CD22 site density was evaluated using flow cytometry and Quantibrite analysis for CRISPR-edited Nalm6 cell lines.
FIGS. 5A-5D: (FIGS. 5A-5B) CD22 CART cells were co-incubated with 1 ng/ml of Bryostatin 1 for 24 hours and washed. […] IFN-γ (FIG. 5A) and granzyme B (FIG. 5B) were measured by ELISA from cell culture supernatants. Statistical analysis was performed using an unpaired t-test (**** p<0.0001, *** p<0.0002, ** p<0.0021, * p<0.0332). […] Cell death was monitored by loss of GFP-positive cells using Incucyte analysis. (FIG. 5D) NSG mice were injected with Nalm6 on Day 0, CD22 CART cells on Day 3, and then were given either DMSO control or Bryostatin 1 at 0.8 μg/kg once weekly for 2 weeks. Leukemia progression was monitored using IVIS technology and luciferin-D IP injections. […]

[4] = system: CD22^lo or Nalm6 leukemia; assay: CAR T cell persistence and phenotype by flow cytometry in leukemia-bearing mice; type: in vivo, NSG mice
Procedure: FIGS. 9A-9F: (FIGS. 9A-9B) A total of 1×10^5 tumor cells were co-cultured with 1×10^5 mock, CD22, or […] CAR and assessed for IFNγ and IL2 cytokines by ELISA from cell culture supernatants (statistics were calculated using paired t test (*, P<0.0332); FIG. 9A) or Annexin V staining was assessed over time using IncuCyte ZOOM (FIG. 9B). […] (FIG. 9C) NSG mice were injected with 1×10^6 GPF-positive CD22^neg, CD22^lo, or Nalm6 tumor cells on day 0. On day 3, 5×10^6 CD22 or CD22^V1 CAR were injected for treatment. Mice were imaged using IVIS technology and luciferin-D intraperitoneal injections. Luminescence quantification is shown on the right. […] (FIG. 9D) CD22 or CD22^V1 CART were co-incubated with tumor cells. On days 1 and 8, CAR was harvested, stained for flow cytometry, and analyzed on Fortessa flow machine. Statistics were calculated using unpaired t test (*, P<0.0332). (FIGS. 9E-9F) Mice were injected with CD22^lo or Nalm6 leukemia on day 0. […] Bone marrow cells were stained for flow cytometry and analyzed on Fortessa flow machine. Statistics were calculated using unpaired t test (****, P<0.0001; *, P<0.0332).
FIGS. 13A-13F: (FIG. 13A) BIAcore analysis was used to evaluate association and dissociation curves of various scFvs. Note: The calculated dissociation rate constant kd (1.1×10^−6 l/s) is lower than the kd which can be measured by the BIAcore X-100 used here (1.0×10^−5 l/s). […] (FIG. 13B) CD22^V1 or CD22 CART were co-cultured with CD22^neg or CD22^lo leukemia and evaluated at 24 hours for PD1 expression through flow cytometry on a Fortessa flow machine. […] Bone marrow cells were stained for flow cytometry and analyzed on Fortessa flow machine. Statistics were calculated using unpaired t-test (** p<0.0021).
CD22-CAR functionality and anti-leukemic efficacy were evaluated in vivo in Nalm6 xenograft or PDX models with NOD.Cg-Prkdcscid Il2rgtm1Wjl/SzJ (NSG) mice (The Jackson Laboratory and bred in-house) ages 6-10 weeks. […] On day 3, mice received CD22-CAR-transduced T cells or mock-transduced T cells intravenously at the indicated quantity. […]

[5] = CAR T cells pre-treated 1 ng/ml 24 hours, co-culture with ALL or DLBCL cell lines

CCC/C=C/C=C/C(=O)O[C@H]1/C(=C/C(=O)OC)C[C@H]2C[C@H]([C@@H](C)O)OC(=O)C[C@H](O)C[C@@H]3C[C@H](OC(C)=O)C(C)(C)[C@](O)(C[C@@H]4C/C(=C/C(=O)OC)C[C@H](/C=C/C(C)(C)[C@]1(O)O2)O4)O3 [Bryostatin 1]
CD22 expression on chronic lymphocytic leukemia (CLL) [1]: increase CD22 expression | IFN-γ produced by pre-treated CD22 CAR relative to DMSO-control [2, 5]: attenuated levels | granzyme B produced by pre-treated CD22 CAR relative to DMSO-control [2, 5]: significantly increased levels | Granzyme B production by the CD19 CAR ([2]; SEM cells exposed to 1 nM for 24 hours): did not show improved Granzyme B production | production of IL-2, IFN-γ, and granzyme B by the CD22 CAR ([2]; pre-treatment of B-ALL and DLBCL target cells, 1 ng/ml 24 hours): significantly enhanced | kinetics of leukemic clearance in vitro by drug-exposed CAR T cells [3]: no change | CD22 CART in bone marrow ([4]; 30 days, drug 40 μg/kg once weekly for 2 weeks after CART): slightly increased | central memory and effector memory cells within CD8+ CART population, spleen ([4]; Nalm6 pretreated with drug, seven days after CD22 CAR injection): significant cumulative enrichment | CART activation/exhaustion markers (PD1, TIM3, LAG3) ([4]; with Bryostatin 1 exposure): stable PD1 expression, without increase in TIM3 or LAGS
